Measurements: article PMC9820303, “^αN-Acetyl β-Endorphin Is an Endogenous Ligand of σ1Rs That Regulates Mu-Opioid Receptor Signaling by Exchanging G Proteins for σ2Rs in σ1R Oligomers” (International Journal of Molecular Sciences, 2022)

System: CD1 mice (wild-type and σ1R−/−)
Experiment: Supraspinal analgesia, warm water (52 °C) tail-flick test
Type: in vivo, mouse
Details: for effect of C-terminal peptides on β-End 1–31 and morphine analgesia: icv 20 min before 0.5 nmol β-End 1–31 or 10 nmol morphine icv; for effect on β-End 1–31 analgesia, nonphysiological fragments: 1 nmol icv 20 min before 0.5 nmol β-End 1–31 icv, 6 mice; for effect on DAMGO analgesia: icv 20 min before DAMGO (0.1 nmol icv), evaluated 15 min after DAMGO; for effect on analgesia of the DOR agonists DPDPE and D-Ala^2 Deltorphin II: icv 20 min before DPDPE (10 nmol) or D-Ala2-deltorphin II (10 nmol) icv; for effect of exogenous σ1R ligands on β-End 1–31 analgesia: 3 nmol icv 20 min before 0.5 nmol β-End 1–31 icv
Description: Upper panel: the withdrawal thresholds of the contralateral and ipsilateral paws were measured before (indicated as 0) and up to 14 days after surgery. […] Middle panel: 0.3 and 3 nmol of ^αN-acetyl β-End 1–31 were administered icv 7 days after surgery, and the nociceptive threshold was evaluated at the indicated postinjection intervals (in minutes). For every time interval studied in min or days, * indicates a significant difference from the group that received saline instead of ^αN-acetyl β-End 1–31; ϕ significant difference from the effect of 3 nmol ^αN-acetyl β-End 1–31. […] All data are presented as the mean ± SD of six mice. ANOVA followed by the Holm–Sidak multiple comparisons test, p < 0.05, 1-β > 0.80. […] Upper panel: wild-type mice were injected icv with saline, ^αN-acetyl β-End 1–31 (1 nmol/mouse) or the combination of the σ1R agonist PPCC (3 nmol/mouse) plus ^αN-acetyl β-End 1–31 20 min before morphine and β-End 1–31. Analgesia was evaluated by the warm water (52 °C) tail-flick test at the interval postinjection corresponding to their peak effect, 30 min. Lower panel: σ1R^−/− mice received 1 nmol ^αN-acetyl β-End 1–31, 20 min before morphine and β-End 1–31 and analgesia was evaluated as described above. Eight mice were used per strain and treatment. * Significant difference with respect to the group treated with morphine or β-End 1–31 alone. ANOVA followed by the Holm–Sidak multiple comparisons test, p < 0.05, 1-β > 0.80.
Figure 3 Effect of physiological β-End 1–31 derivatives on morphine and β-End 1–31 analgesia. […] (A) The mice were icv-injected with 25 nmol of β-End 1–26, β-End 1–27 and ^αN-acetylated derivatives 20 min before icv 0.5 nmol β-End 1–31. Analgesia was determined at the indicated postinjection intervals. (B) CD1 wild-type and σ1R^−/− mice were administered C terminal peptide sequences 27–31, 28–31 and 30–31 of β-End 1–31 through an icv injection 20 min before 0.5 nmol of the whole β-End 1–31 and morphine (10 nmols) were injected icv. […] (C) A series of exogenous σ1R ligands (3 nmol) were icv-injected 20 min before 0.5 nmol β-End 1–31 was administered via icv in wild-type mice. The σ1R antagonist S1RA was also icv-injected before β-End 1–31 was administered icv in σ1R^−/− mice. (D) The effects of several doses of S1RA on morphine analgesia were studied in wild-type and σ1R^−/− mice. […] ANOVA followed by the Holm–Sidak multiple comparisons test, p < 0.05, 1-β > 0.80.
(A) The effect of σ1R deletion on opioid- and cannabinoid-induced analgesia. Analgesic compounds were icv-injected into wild-type and σ1R^−/− mice, and analgesia was evaluated 30 min after morphine (3 nmol) and β-End 1–31 (0.5 nmol), 15 min after DAMGO (0.1 nmol) and DPDPE (10 nmol) and 10 min after WIN55,212-2 (15 nmol). The bars are the mean ± SD of eight mice per strain and treatment. * Significant difference with respect to the effect of the analgesic substance in the wild-type group. ANOVA followed by the Holm–Sidak multiple comparisons test, p < 0.05, 1-β > 0.80. (B) Coprecipitation of G proteins with MORs. Solubilized mouse brain cortical membranes enriched in synaptosomes (SBM) from CD1 wild-type (WT) and σ1R^−/− mice were solubilized with sonication in the presence of 1% NP-40. Non-soluble debris was eliminated, and the samples were then incubated overnight at 4 °C with affinity-purified biotinylated IgGs that were raised against extracellular regions of the MOR. Protein complexes that were immunoprecipitated with streptavidin agarose were extensively washed and then resolved by SDS-PAGE.

“KKGE [β-End 28–31, C-terminal tetrapeptide of β-End 1–31]” was tested, and the “effect of C-terminal peptides on β-End 1–31 and morphine analgesia” value (wild-type mice) was “reduced the analgesic activity of β-End 1–31 and morphine”.

For “β-End 6–31: β-End 1–31 lacking the N-terminal met-enkephalin 1–5 sequence (TSEKSQTPLVTLFKNAIIKNAYKKGE; Beta-endorphin; UniProt P01189 242-267, looked up, fragment)”, the “effect on β-End 1–31 analgesia, nonphysiological fragments” value was “not produced”.

In the case of “^αN-acetyl β-End 1–31: β-End 1–31 acetylated at N terminal Y1, α position”, the “effect on morphine and β-End 1–31 analgesic potency, 1 pmol” value (1 pmol icv 30 min before morphine and β-End 1–31, wild-type mice) is reported as “significant reductions in their analgesic potency”, the “effect on DAMGO analgesia” value is reported as “enhanced DAMGO analgesia” and the “effect on analgesia of the DOR agonists DPDPE and D-Ala^2 Deltorphin II” value is reported as “neither ^αN-acetyl β-End 1–31 nor S1RA altered the analgesic effects”. For the same molecule, the “icv dose at which the regulatory effects on analgesia reached a maximum” value (icv, persisted at 1 pmol or 1 nmol) was 1 to 10 fmols, the “effect on DAMGO and clonidine analgesia” value (increasing icv doses 20 min before DAMGO (0.1 nmol) or clonidine (150 nmol) icv, wild-type mice) was “increased” and the “effect on morphine and β-End 1–31 analgesia in σ1R−/− mice” value (σ1R−/− mice, icv before the opioids) was “not altered”.

In the case of Br.Br.CN(C)CCN(C)CCc1ccc(Cl)c(Cl)c1 [BD1047, N′-[2-(3,4-dichlorophenyl)ethyl]-N,N,N′-trimethylethane-1,2-diamine;dihydrobromide, reference compound], the “effect of exogenous σ1R ligands on β-End 1–31 analgesia” value (“effect of exogenous σ1R ligands” below) (wild-type mice) is reported as “diminished”.

“YKKGE [β-End 27–31, C-terminal pentapeptide of β-End 1–31]” was tested, and the “effect of C-terminal peptides on β-End 1–31 and morphine analgesia” value (wild-type mice) was “reduced the analgesic activity of β-End 1–31 and morphine”.

In the case of Cl.O=C(OCCN1CCOCC1)C1(c2ccccc2)CCCCC1 [PRE084, 2-(4-morpholinethyl)-1-phenylcyclohexanecarboxylate hydrochloride, reference compound], the “effect of exogenous σ1R ligands” value (wild-type mice) is reported as “did not alter the effect of β-End 1–31”.

For “β-End 22–31: nonphysiological C-terminal sequence of β-End 1–31 (IIKNAYKKGE; Beta-endorphin; UniProt P01189 258-267, looked up, fragment)”, the “effect on β-End 1–31 analgesia, nonphysiological fragments” value was “reduced β-End 1–31 analgesia”.

With COC(=O)[C@]1(c2ccc(C)cc2)C[C@@H]1CN1CCC(O)(c2ccccc2)CC1 [PPCC, (1R,2S/1S,2R)-2-[4-hydroxy-4-phenylpiperidin-1-yl)methyl]-1-(4-methylphenyl) cyclopropanecarboxylate, reference compound] the “effect of exogenous σ1R ligands” value (wild-type mice) was “did not alter the effect of β-End 1–31”, the “effect on the antagonist activity of β-End C-terminal peptides” value (PPCC 3 nmol icv 10 min before the β-End C-terminal peptides) was “prevented” and the “effect on the impairment of morphine and β-End 1–31 analgesia by ^αN-acetyl β-End 1–31” value (PPCC 3 nmol/mouse icv plus ^αN-acetyl β-End 1–31, wild-type mice) was “prevented the impairing effects”.

In the case of Cc1cc(OCCN2CCOCC2)nn1-c1ccc2ccccc2c1 [S1RA], the “effect of exogenous σ1R ligands” value (wild-type mice) is reported as “diminished”, the “effect on morphine analgesia, 3 nmol” value (3 nmol icv, wild-type mice) is reported as “produced the maximum increase” and the “effect on morphine analgesia, 10 nmol” value (10 nmol icv, wild-type mice) is reported as “barely altered morphine effects”. The “effect on DAMGO analgesia” value was “enhanced DAMGO analgesia”, the “effect on analgesia of the DOR agonists DPDPE and D-Ala^2 Deltorphin II” value was “neither ^αN-acetyl β-End 1–31 nor S1RA altered the analgesic effects” and the “effect on morphine analgesia” value (icv before morphine, wild-type mice) was “enhanced morphine analgesia”.
